From US5401725A, “Neovascularization inhibition by adenosine-5'-phosphosulfates” (Unitika Ltd., priority 1990, dated 1995)

What was measured:
[1] = tested on: capillary vessel hyperplasia (experimental diabetic retinopathy); experiment: therapeutic effect on experimental diabetic retinopathy; type: in vivo, rat (wister); conditions: for improving effect of pathologic state / beneficial effect on the pathologic state: I.P.; for improving effect of pathologic state: ten consecutive days; for beneficial effect on the pathologic state: ten days
Method: First, streptozocin in an amount of 65 mg/kg was administered to a six-week aged male wister rat from its vena caudalis, and about three months thereafter, 3,3'-iminodipropionitrile was administered. Rats in which abnormal growth of capillary vessel (hyperplasia retinitis) was observed were screened out and were subjected to a medicament administration test with ten rats as a group.
For comparison purposes, the effect of the medroxyprogesterone acetate (MPA), the conventional substance for inhibiting the neovascularization, was also tested by the same procedure as described above.

[2] = tested on: neovascularization of chorio-allantoic membranes; experiment: neovascularization inhibition on chorio-allantoic membranes of fertilized fowl eggs; type: in vivo; conditions: for neovascularization inhibitory rate: two days; for neovascularization inhibitory effect (in words): commercially available
[3] = tested on: neovascularization in the cornea; experiment: inhibition of neovascularization in the cornea of rabbits (slow-releasing pellet); type: in vivo, rabbit; conditions: 100 μg and 1.0 mg in pellet with 10 μg prostaglandin E1 or 200 μg cuprous chloride; seven days
[4] = toxicity in rats, parenteral administration; type: in vivo, rat; conditions: 500 to 3,500 mg/kg in 50% dimethylsulfoxide, I.V. or I.P.

CC(=O)O[C@]1(C(C)=O)CC[C@H]2[C@@H]3C[C@H](C)C4=CC(=O)CC[C@]4(C)[C@H]3CC[C@@]21C [MPA, medroxyprogesterone acetate, reference compound]
improving effect of pathologic state ([1]; Table 3, 1.5 mg/kg): - | improving effect of pathologic state ([1]; Table 3, 3.0 mg/kg): + (improving effects of pathologic state of 10 to 30%) | improving effect of pathologic state ([1]; Table 3, 4.5 mg/kg): + (improving effects of pathologic state of 10 to 30%) | improving effect of pathologic state ([1]; Table 3, 6.0 mg/kg): ++ (30 to 70%)

Nc1ncnc2c1ncn2[C@@H]1O[C@H](COP(=O)(O)OS(=O)(=O)O)[C@@H](OP(=O)(O)O)[C@H]1O [PAPS, 3-phosphoadenosine 5'-phosphosulfate]
neovascularization inhibitory rate ([2]; Table 1, commercially available (Sigma), dose 1 μg): + (10 to 80% (+)) | neovascularization inhibitory rate ([2]; Table 1, commercially available (Sigma), dose 10 μg): ++ (80 to 70% (++)) | neovascularization inhibitory rate ([2]; Table 1, commercially available (Sigma), dose 100 μg): ++ (80 to 70% (++)) | neovascularization inhibitory rate ([2]; Table 1, commercially available (Sigma), dose 1,000 μg): +++ (70 to 100% (+++)) | neovascularization inhibitory rate ([2]; Table 2, enzyme-synthesized, dose 1 μg): + (10 to 80% (+)) | neovascularization inhibitory rate ([2]; Table 2, enzyme-synthesized, dose 10 μg): ++ (80 to 70% (++)) | neovascularization inhibitory rate ([2]; Table 2, enzyme-synthesized, dose 100 μg): ++ (80 to 70% (++)) | neovascularization inhibitory rate ([2]; Table 2, enzyme-synthesized, dose 1,000 μg): +++ (70 to 100% (+++)) | neovascularization inhibitory effect (in words) ([2]; dose 10 μg): slight effect | neovascularization inhibitory effect (in words) ([2]; dose at least 100 μg): perfect neovascularization inhibitory effect | neovascularization inhibition (in words) ([2]; enzyme-synthesized, dose range 1 to 1,000 μg): inhibited neovascularization in a dose-dependent manner | inhibition of neovascularization caused by prostaglandin E1 or cuprous chloride [3]: perfectly inhibit the neovascularization | beneficial effect on the pathologic state ([1]; 1.5 mg/kg administration group): 10% | beneficial effect on the pathologic state ([1]; 3.0 mg/kg group): 70% | beneficial effect on the pathologic state ([1]; 6.0 mg/kg group): at least 80% | improving effect of pathologic state ([1]; Table 3, 1.5 mg/kg): + (improving effects of pathologic state of 10 to 30%) | improving effect of pathologic state ([1]; Table 3, 3.0 mg/kg): ++ (30 to 70%) | improving effect of pathologic state ([1]; Table 3, 4.5 mg/kg): +++ (70 to 100%) | improving effect of pathologic state ([1]; Table 3, 6.0 mg/kg): +++ (70 to 100%) | therapeutic effect as compared with MPA (in words) ([1]; any of the doses (1.5-6.0 mg/kg), compared with MPA): excellent therapeutic effect | intoxication or lethality [4]: no cases of intoxication or lethality
